In US12275731B2, “Azaindole inhibitors of wild-type and mutant forms of LRRK2” (DANA-FARBER CANCER INSTITUTE, INC., priority 2018, dated 2025):

Tests used:
Test in all cases: KinomeScan profiling
Assay type in all cases: binding
EPHB2 = molecular target: T1, EPHB2 (Homo sapiens, UniProt P29323); details: EPHB2, 1 μM; read-out: % control
T1 sequence (P29323 19-1055): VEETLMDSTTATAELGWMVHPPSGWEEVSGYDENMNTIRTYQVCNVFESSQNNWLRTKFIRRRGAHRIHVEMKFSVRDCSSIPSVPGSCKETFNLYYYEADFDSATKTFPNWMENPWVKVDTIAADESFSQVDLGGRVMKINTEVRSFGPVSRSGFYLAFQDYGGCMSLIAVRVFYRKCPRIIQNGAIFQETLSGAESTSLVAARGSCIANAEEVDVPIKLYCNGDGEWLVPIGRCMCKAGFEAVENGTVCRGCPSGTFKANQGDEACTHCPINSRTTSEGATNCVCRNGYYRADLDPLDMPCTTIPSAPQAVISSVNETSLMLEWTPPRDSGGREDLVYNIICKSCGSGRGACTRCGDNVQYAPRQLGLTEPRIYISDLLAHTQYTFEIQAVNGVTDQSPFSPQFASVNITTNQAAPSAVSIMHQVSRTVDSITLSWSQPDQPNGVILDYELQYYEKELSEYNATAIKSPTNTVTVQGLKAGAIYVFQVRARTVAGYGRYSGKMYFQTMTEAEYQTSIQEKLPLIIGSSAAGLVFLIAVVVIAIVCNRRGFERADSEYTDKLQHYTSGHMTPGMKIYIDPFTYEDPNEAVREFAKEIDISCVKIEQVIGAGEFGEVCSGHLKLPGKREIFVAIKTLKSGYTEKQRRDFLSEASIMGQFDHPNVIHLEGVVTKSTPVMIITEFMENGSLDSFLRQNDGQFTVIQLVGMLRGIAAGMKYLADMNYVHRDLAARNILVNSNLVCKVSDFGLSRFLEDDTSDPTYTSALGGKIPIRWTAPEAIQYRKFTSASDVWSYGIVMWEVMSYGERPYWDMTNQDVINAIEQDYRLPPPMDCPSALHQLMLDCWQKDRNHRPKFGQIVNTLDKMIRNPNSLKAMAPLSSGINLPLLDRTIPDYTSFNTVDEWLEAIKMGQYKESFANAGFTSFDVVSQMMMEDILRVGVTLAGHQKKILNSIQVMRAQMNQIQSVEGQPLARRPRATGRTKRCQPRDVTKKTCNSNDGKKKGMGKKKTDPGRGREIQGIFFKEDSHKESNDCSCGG
Method in brief: (§1)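 Compounds were screened at 1 μM in DMSO across a 468-kinase KinomeScan panel. Binding was expressed as % control, scaled between a positive control (0%) and DMSO (100%) using luminescence signal. A value under 35% counted as active.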

FLT3 = molecular target: T2, FLT3 (Homo sapiens, UniProt P36888); details: FLT3, 1 μM; read-out: % control
T2 sequence (P36888 27-993): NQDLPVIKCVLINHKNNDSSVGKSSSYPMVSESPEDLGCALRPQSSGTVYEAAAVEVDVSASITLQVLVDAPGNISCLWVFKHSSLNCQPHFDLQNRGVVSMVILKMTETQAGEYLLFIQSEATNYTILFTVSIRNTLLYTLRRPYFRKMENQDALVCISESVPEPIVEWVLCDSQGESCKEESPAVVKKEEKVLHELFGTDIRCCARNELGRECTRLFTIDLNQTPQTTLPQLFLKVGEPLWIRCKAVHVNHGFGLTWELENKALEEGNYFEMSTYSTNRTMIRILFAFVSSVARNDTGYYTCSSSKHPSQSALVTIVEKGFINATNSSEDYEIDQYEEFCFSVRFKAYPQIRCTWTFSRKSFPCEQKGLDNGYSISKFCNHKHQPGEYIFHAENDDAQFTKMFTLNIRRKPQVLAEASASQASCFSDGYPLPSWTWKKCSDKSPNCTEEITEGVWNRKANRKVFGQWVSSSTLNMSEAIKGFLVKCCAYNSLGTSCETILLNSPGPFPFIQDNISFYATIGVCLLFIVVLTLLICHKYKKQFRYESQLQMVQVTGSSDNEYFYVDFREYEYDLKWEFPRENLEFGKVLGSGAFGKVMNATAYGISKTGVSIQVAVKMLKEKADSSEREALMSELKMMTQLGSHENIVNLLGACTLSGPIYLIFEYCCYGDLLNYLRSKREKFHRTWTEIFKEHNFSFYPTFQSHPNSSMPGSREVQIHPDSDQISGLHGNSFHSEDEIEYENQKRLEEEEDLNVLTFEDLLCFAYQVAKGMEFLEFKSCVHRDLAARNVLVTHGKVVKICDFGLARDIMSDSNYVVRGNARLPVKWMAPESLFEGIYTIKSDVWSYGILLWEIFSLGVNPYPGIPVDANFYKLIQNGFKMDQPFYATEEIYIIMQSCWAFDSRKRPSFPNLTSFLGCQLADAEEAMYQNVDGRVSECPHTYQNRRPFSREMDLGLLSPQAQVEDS
Method in brief: as §1

PIP5K2C = molecular target: T3, PIP5K2C (Homo sapiens, UniProt Q8TBX8); details: read-out: % control
T3 construct: purchased KinomeScan® (panel service)
T3 sequence (Q8TBX8 1-421): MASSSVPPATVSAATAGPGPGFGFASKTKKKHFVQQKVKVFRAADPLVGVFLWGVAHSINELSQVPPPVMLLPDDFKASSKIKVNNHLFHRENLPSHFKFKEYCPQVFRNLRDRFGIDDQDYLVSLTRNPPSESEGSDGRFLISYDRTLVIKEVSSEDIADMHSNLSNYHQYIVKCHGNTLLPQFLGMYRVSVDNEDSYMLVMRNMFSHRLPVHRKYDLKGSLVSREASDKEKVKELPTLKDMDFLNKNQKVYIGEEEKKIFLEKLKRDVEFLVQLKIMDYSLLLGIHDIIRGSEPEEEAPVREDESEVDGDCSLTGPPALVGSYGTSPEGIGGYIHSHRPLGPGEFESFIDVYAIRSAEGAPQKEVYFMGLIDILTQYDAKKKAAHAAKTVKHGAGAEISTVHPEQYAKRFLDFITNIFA
Method in brief: as §1

| Structure (SMILES) | remaining binding at 1 µM (EPHB2) | remaining binding at 1 µM (FLT3) | remaining binding at 1 µM (PIP5K2C) |
| --- | --- | --- | --- |
| CNc1c(-c2cnn([C@H]3CCN(C(C)=O)C[C@@H]3F)c2)cnc2[nH]cc(Cl)c12 [Compound 77, 1-((3S,4S)-4-(4-(3-chloro-4-(methylamino)-1H-pyrrolo[2,3-b]pyridin-5-yl)-1H-pyrazol-1-yl)-3-fluoropiperidin-1-yl)ethan-1-one] | 98% | 3.3% | 93% |
| O=C(c1ccc(-c2cnc3[nH]cc(Cl)c3c2NC2CCCC2)cc1)N1CCC(N2CCOCC2)CC1 [Compound 101, (4-(3-chloro-4-(cyclopentylamino)-1H-pyrrolo[2,3-b]pyridin-5-yl)phenyl)(4-morpholinopiperidin-1-yl)methanone] | 97% | 4.9% | 77% |
| CNc1c(-c2ccc(C(=O)N3CCC(N4CCOCC4)CC3)cc2)cnc2[nH]cc(Cl)c12 [Compound 96, (4-(3-chloro-4-(methylamino)-1H-pyrrolo[2,3-b]pyridin-5-yl)phenyl)(4-morpholinopiperidin-1-yl)methanone] | 97% | 6.7% | 63% |
